In ChEMBL document CHEMBL1124571, “Cardiac glycoside-like structure and function of 5 beta,14 beta-pregnanes” (J Med Chem, 1989):

Each molecule was assayed against Sodium/potassium-transporting ATPase (assay: Compound is evaluated for inhibition of specific binding of [3H]ouabain to membranes from dog heart).
Parameters: species or system Canis lupus familiaris

SMILES | IC50 [µM]
C[C@H](O)[C@H]1CC[C@@]2(O)[C@@H]3CCC4C[C@@H](OC5CC(O)C(O)C(CO)O5)CC[C@]4(C)[C@H]3CC[C@]12C (stereo in doubt; 5) | 0.4
CC(=O)[C@H]1CC[C@@]2(O)[C@@H]3CC[C@H]4CC(=O)CC[C@]4(C)[C@H]3CC[C@]12C | 46
C[C@H](O)[C@H]1CC[C@@]2(O)[C@@H]3CCC4C[C@@H](OC5CC(O)C(O)C(CO)O5)CC[C@]4(C)[C@H]3CC[C@]12C (stereo in doubt) | 0.06
CC(=O)[C@@H]1CC[C@@]2(C)[C@@H](CC[C@@H]3[C@@H]2CC[C@]2(C)C([C@H](C)O)CC[C@@]32O)C1 (stereo partly drawn) | 6
CC(O)[C@H]1CC[C@@]2(O)[C@@H]3CCC4C[C@@H](O)CC[C@]4(C)[C@H]3CC[C@]12C (stereo partly drawn) | 6
CC(=O)[C@H]1CCC2(O)C3CCC4CC(O)CCC4(C)C3CCC12C (stereo partly drawn) | > 400
CC(=O)[C@H]1CC[C@@]2(C)[C@@H](CC[C@@H]3[C@@H]2CC[C@]2(C)[C@@H](C(C)=O)CC[C@@]32O)C1 | 20
CC(=O)[C@H]1CC[C@@]2(O)[C@@H]3CC[C@H]4C[C@@H](O)CC[C@]4(C)[C@H]3CC[C@]12C | 21
